Test results: paper PMC8734228 (Cancer discovery, 2021)
Where two headings read alike, the source gives them in different places. Blank lines part the entries; values can stand above or below the compound they belong to.

How the values were obtained:
FLC1,3,5 cells = assay: Synergy assay, combination matrix with panobinostat; format: cell-based, human
FLC PDX cells = assay: Validation screen on cells dissociated from FLC PDX; format: cell-based, human; conditions: for Effect on FLC PDX cells in vitro (dose response, normalized percent survival): 10nM-10μM, FLC1-6; for Effect on FLC PDX cells in vitro (dose response, normalized percent survival) / EC50: 72 h; for Efficacy ranking in the screen: ranked by average −log10EC50 for FLC1-5 minus −log10EC50 for PHH; for Therapeutic window for FLC over PHH: FLC PDX cells compared with PHH
ErbB2 = conditions: read-out: IC50 ErbB2; cited from earlier work
FLC4 PDX cells = assay: Validation screen, 11-point dose response, 72 h, Cell Titer Glo; format: cell-based, human; conditions: read-out: EC50 FLC
FLC1 PDX cells = assay: as above; format: cell-based, human; conditions: read-out: EC50 FLC
FLC3 PDX cells = assay: as above; format: cell-based, human; conditions: read-out: EC50 FLC
[1] = test system: primary human hepatocytes (PHH); assay: Validation counter-screen on primary human hepatocytes; conditions: 72 h; for EC50: read-out: EC50 PHH; for Effect on PHH (dose response, normalized percent survival): up to 10 μM
FLC5 PDX cells = assay: Validation screen, 11-point dose response, 72 h, Cell Titer Glo; format: cell-based, human; conditions: read-out: EC50 FLC
FLC2 PDX cells = assay: as above; format: cell-based, human; conditions: read-out: EC50 FLC
FLC5 cells = assay: Anchor screen, synergy assay; format: cell-based, human; conditions: FLC5, ZIP, Bliss and HSA scores
AURKA = conditions: read-out: IC50 AURKA; cited from earlier work
PAK 2 = conditions: read-out: IC50 PAK 2; cited from earlier work
PAK 1 = conditions: read-out: IC50 PAK 1; cited from earlier work
PAK 3 = conditions: read-out: IC50 PAK 3; cited from earlier work
PKG = conditions: read-out: Ki against other kinases: PKG; cited from earlier work
PKA = conditions: read-out: Ki PKA; cited from earlier work
[2] = test system: cells dissociated directly from patient tumors (FLC.T6-T11); assay: Direct from patient in vitro screening; format: cell-based, human; conditions: for Sensitivity of cells tested directly from patients: 10μM-10nM, 72h, Cell Titer Glo; for Drug sensitivity of FLC.T6 compared with derived PDX FLC6 (EC50): cells direct from patient tumor vs cells from its PDX
EGFR = conditions: read-out: IC50 EGFR; cited from earlier work
FLC1 cells = assay: Role of ROS: survival with or without N-acetyl cysteine 10mM; format: cell-based, human; conditions: NAC 10mM, 72 h
Akt1 = conditions: read-out: Ki against other kinases: Akt1; cited from earlier work
Akt3 = conditions: read-out: Ki against other kinases: Akt3; cited from earlier work
mTOR = conditions: read-out: IC50 mTOR; cited from earlier work
FLC patients = conditions: two FLC patients, clinical trial ref 10; cited from earlier work
[3] = test system: eIF4F sensitive proteins in FLC6 cells; assay: Immunoblot of eIF4F sensitive protein levels; format: cell-based, human
FLC1 PDX = assay: In vivo drug testing in mice bearing PDX FLC1
FLC PDX = assay: In vivo drug testing of HDAC inhibitors in mice bearing PDX
[4] = test system: cells dissociated from PDX FLC1 and FLC5; assay: Primary high throughput screen, 1μM, 72 h; format: cell-based, human; conditions: pass = survival <60%
[5] = napabucasin 10mg/kg IP, 5 days on 2 days off, FLC1
[6] = napabucasin 10mg/kg IP, 14 days
[7] = napabucasin 10mg/kg, after 14 days

Compound: Cc1c(-c2ccc(N3CCc4cccc(C(=O)Nc5nc6ccccc6s5)c4C3)nc2C(=O)O)cnn1CC12CC3CC(CC(C3)C1)C2 [A1331852]
Synergy with panobinostat (ZIP synergy score) (FLC1,3,5 cells): synergized

Compound: Cc1c2c(nn1C)CSCc1cc(n(C)n1)CSc1cc(c3ccccc3c1)OCCCc1c(C(=O)O)n(C)c3c-2c(Cl)ccc13 [AZD5991]
Synergy with panobinostat (ZIP synergy score) (FLC1,3,5 cells): more modest synergy

Compound: COCC(=O)NC/C=C/c1ccc2ncnc(Nc3ccc(Oc4ccc(C)nc4)c(C)c3)c2c1 [CP-724714]
Effect on FLC PDX cells in vitro (dose response, normalized percent survival) (FLC PDX cells): no effect
IC50 (ErbB2): 10 nM

Compound: NC1(C(=O)N[C@@H](CCO)c2ccc(Cl)cc2)CCN(c2nc[nH]c3nccc2-3)CC1 [Capivasertib (AZD5363), Capivasertib]
EC50 (FLC4 PDX cells; FLC4, 72 h): 2090 nM
EC50 (FLC1 PDX cells; FLC1, 72 h): 2980 nM
EC50 (FLC3 PDX cells; FLC3, 72 h): 5150 nM
EC50 [1]: > 10000 nM
EC50 (FLC5 PDX cells; FLC5, 72 h): 12600 nM
EC50 (FLC2 PDX cells; FLC2, 72 h): 3850 nM

EC50 (FLC PDX cells; Homo sapiens, read-out: EC50 against the PDX cells): > 5000 nM
Compound: Cc1cc(Nc2cc(N3CCN(C)CC3)nc(/C=C/c3ccccc3)n2)n[nH]1 [ENMD-2076]
Efficacy ranking in the screen (FLC PDX cells): 123
Synergy with A1331852 (FLC5 cells): All drugs, apart from ENMD-2076 and uprosertib, showed some synergy

Compound: CCn1c(=O)c(-c2ccc(-c3cncs3)cc2Cl)cc2cnc(Nc3ccc(N4CCN(C)CC4)cc3)nc21 [FRAX567]
Effect on FLC PDX cells in vitro (dose response, normalized percent survival) (FLC PDX cells): consistent inhibition against all PDX
Efficacy ranking in the screen (FLC PDX cells): 12
IC50 (PAK 1): 8 nM
IC50 (PAK 3): 19 nM

Compound: O=S(=O)(NCCNC/C=C/c1ccc(Br)cc1)c1cccc2cnccc12 [H89]
EC50 (FLC4 PDX cells; FLC4, 72 h): 20900 nM
Therapeutic window for FLC over PHH (FLC PDX cells): no therapeutic window
EC50 (FLC1 PDX cells; FLC1, 72 h): 5820 nM
EC50 (FLC3 PDX cells; FLC3, 72 h): 18200 nM
EC50 [1]: 41500 nM
EC50 (FLC5 PDX cells; FLC5, 72 h): 9490 nM
Ki (PKG): 480 nM
Ki (PKA): 48 nM
EC50 (FLC2 PDX cells; FLC2, 72 h): 23900 nM

Compound: CCOc1cc2ncc(C#N)c(Nc3ccc(OCc4ccccn4)c(Cl)c3)c2cc1NC(=O)/C=C/CN(C)C [Neratinib]
Effect on FLC PDX cells in vitro (dose response, normalized percent survival) (FLC PDX cells): affected FLC1,5 in the micromolar range
Sensitivity of cells tested directly from patients [2]: no effect on three others
Drug sensitivity of FLC.T6 compared with derived PDX FLC6 (EC50) [2]: correlated well
IC50 (EGFR): 92 nM
IC50 (ErbB2): 59 nM

Compound: CCc1c2c(nc3ccc(O)cc13)-c1cc3c(c(=O)n1C2)COC(=O)[C@]3(O)CC [SN-38]
Effect on FLC PDX cells in vitro (dose response, normalized percent survival) (FLC PDX cells): effective only against FLC1,3,4
Efficacy ranking in the screen (FLC PDX cells): 13
Sensitivity of cells tested directly from patients [2]: sensitive
Drug sensitivity of FLC.T6 compared with derived PDX FLC6 (EC50) [2]: correlated well
Effect of N-acetyl cysteine (NAC) on the toxicity of the drug (FLC1 cells): no effect

Compound: Cn1ncc(Cl)c1-c1cc(C(=O)N[C@H](CN)Cc2ccc(F)c(F)c2)oc1Cl [Uprosertib (GSK2141795), Uprosertib]
EC50 (FLC4 PDX cells; Homo sapiens, 72 h): 910 nM
Efficacy ranking in the screen (FLC PDX cells): 28
Sensitivity of cells tested directly from patients [2]: some sensitivity
EC50 (FLC1 PDX cells; Homo sapiens, 72 h): 49 nM
EC50 (FLC3 PDX cells; Homo sapiens, 72 h): 870 nM
Synergy with A1331852 (FLC5 cells): All drugs, apart from ENMD-2076 and uprosertib, showed some synergy
Synergy with navitoclax (FLC5 cells): now synergized
Ki (Akt1): 180 nM
EC50 ([1]; Homo sapiens, Hepatocyte): > 10000 nM
EC50 (FLC5 PDX cells; Homo sapiens, 72 h): 1720 nM
Ki (Akt3): 38 nM
Ki (PKA): 2 nM
EC50 (FLC2 PDX cells; Homo sapiens, 72 h): 5040 nM

Drug sensitivity of FLC.T6 compared with derived PDX FLC6 (EC50) [2]: outliers
Compound: C=CC(=O)N1CC/C(=C\c2ccc(F)c([N+](=O)[O-])c2)C(=O)/C(=C/c2ccc(F)c([N+](=O)[O-])c2)C1 [VLX1570]
Efficacy ranking in the screen (FLC PDX cells): 31
Sensitivity of cells tested directly from patients [2]: blunted response
Effect of N-acetyl cysteine (NAC) on the toxicity of the drug (FLC1 cells): completely abrogated

Compound: CO[C@H]1C[C@@H]2CC[C@@H](C)[C@@](O)(O2)C(=O)C(=O)N2CCCC[C@H]2C(=O)O[C@H]([C@H](C)C[C@@H]2CC[C@@H](OCCO)[C@H](OC)C2)CC(=O)[C@H](C)/C=C(\C)[C@@H](O)[C@@H](OC)C(=O)[C@H](C)C[C@H](C)/C=C/C=C/C=C/1C [everolimus]
IC50 (mTOR): 1.6 to 2.4 nM
Synergy with A1331852 (FLC5 cells): some synergy

Compound: CN1CC[C@H](c2c(O)cc(O)c3c(=O)cc(-c4ccccc4Cl)oc23)[C@H](O)C1 [flavopiridol]
Sensitivity of cells tested directly from patients [2]: some sensitivity
Duration of stable disease (FLC patients): 17 months
Effect on PHH (dose response, normalized percent survival) [1]: toxic

Compound: CC(=O)[C@]1(O)Cc2c(O)c3c(c(O)c2[C@@H](O[C@H]2C[C@H](N)[C@H](O)[C@H](C)O2)C1)C(=O)c1ccccc1C3=O [idarubicin]
Effect on FLC PDX cells in vitro (dose response, normalized percent survival) (FLC PDX cells): showed an effect on some of the FLC PDX
Synergy with A1331852 (FLC5 cells): some synergy

Drug sensitivity of FLC.T6 compared with derived PDX FLC6 (EC50) [2]: correlated well
Average weight loss (FLC1 PDX; [6]): 6.7%
Compound: CC(=O)c1cc2c(o1)C(=O)c1ccccc1C2=O [napabucasin]
Sensitivity of cells tested directly from patients [2]: sensitive
Effect of N-acetyl cysteine (NAC) on the toxicity of the drug (FLC1 cells): partially attenuated
c-Myc levels ([3]; 1 μM napabucasin, FLC cells, GAPDH control): dramatic decrease
Levels of MDM2, Bcl-xL, MCL1 and Cyclin D1 ([3]; napabucasin 1μM or 2μM, FLC6 cells): lowered the levels
Effect on PHH (dose response, normalized percent survival) [1]: no detectable effect
Tumor growth at 7 days (FLC1 PDX; [5]): 44%
Tumor growth at 14 days (FLC1 PDX; [5]): 52%
Ratio of tumor volume:mouse weight (FLC1 PDX; [6]): stable or decreased
Mitotic figures, Ki67 and pHH3 positive cells in tumors (FLC1 PDX; [7]): decrease
TUNEL positive cells in tumors (FLC1 PDX; [7]): small increase

Compound: Cn1cc(CNCC2CCN(c3ncc(C(=O)NO)cn3)CC2)c2ccccc21 [quisinostat]
Sensitivity of cells tested directly from patients [2]: sensitive
Effect of N-acetyl cysteine (NAC) on the toxicity of the drug (FLC1 cells): mildly attenuated
Tumor growth at 14 days (FLC PDX; 10mg/kg IP): 7%
Apoptosis as assayed by TUNEL (FLC PDX; 10mg/kg, after 14 days): no significant increase
Mitotic figures, Ki67 and pHH3 positive cells in tumors (FLC PDX; 10mg/kg, after 14 days): almost complete disappearance
Macroscopic assessment of tumors (FLC PDX; quisinostat 10mg/kg daily IP, 14 days): necrosis in the drug treated tumors

Compound: Cc1ccc(NC2=CC(=O)c3sc(C)nc3C2=O)cc1 [ryuvidine]
Effect on FLC PDX cells in vitro (dose response, normalized percent survival) (FLC PDX cells): effective against all PDX lines
Efficacy ranking in the screen (FLC PDX cells): third
EC50 (FLC PDX cells; read-out: EC50 against FLC PDX in vitro, across all FLC PDX lines): 20 to 200 nM
Effect of N-acetyl cysteine (NAC) on the toxicity of the drug (FLC1 cells): completely abrogated
EC50 [1]: > 10000 nM

Compound: CC[C@@]1(O)C(=O)OCc2c1cc1n(c2=O)Cc2cc3c(CN(C)C)c(O)ccc3nc2-1 [topotecan]
Synergy with A1331852 (FLC5 cells): some synergy

Compound: CC(=O)Nc1cccc(-n2c(=O)n(C3CC3)c(=O)c3c(Nc4ccc(I)cc4F)n(C)c(=O)c(C)c32)c1 [trametinib]
Synergy with A1331852 (FLC5 cells): some synergy
Result in primary screen (normalized percent survival) [4]: None

Compound: CC1(C)CCC(CN2CCN(c3ccc(C(=O)NS(=O)(=O)c4ccc(NCC5CCOCC5)c([N+](=O)[O-])c4)c(Oc4cnc5[nH]ccc5c4)c3)CC2)=C(c2ccc(Cl)cc2)C1 [venetoclax]
Effect on FLC PDX cells in vitro (dose response, normalized percent survival) (FLC PDX cells): minimal activity
Efficacy ranking in the screen (FLC PDX cells): towards the bottom of the ranking
Synergy with panobinostat (ZIP synergy score) (FLC1,3,5 cells): no synergy

Compound: CNC(=O)c1cccc(-c2ccc3c(N4CCOC[C@@H]4C)nc(N4CCOC[C@@H]4C)nc3n2)c1 [visusertib]
Synergy with A1331852 (FLC5 cells): some synergy

EC50 (FLC PDX cells; read-out: EC50 against the PDX cells): 1000 to 4000 nM
Compound: Aurora Kinase Inhibitor I
IC50 (AURKA): 3.4 nM

Compound: SBI-0640756
Therapeutic window for FLC over PHH (FLC PDX cells): clear therapeutic window
Efficacy ranking in the screen (FLC PDX cells): 19
Sensitivity of cells tested directly from patients [2]: sensitive
Effect of N-acetyl cysteine (NAC) on the toxicity of the drug (FLC1 cells): completely abrogated
